Experimental data published in US12435059B2, “AMP-activated protein kinase inhibitors and methods of making and using the same” (The Regents of the University of Colorado, priority 2019, dated 2025).
Where two headings read alike, the source gives them in different places.

Legend:
Assay in all cases: biochemical
Assay type in all cases: binding
468 kinases [1] = target: 468 kinases (Homo sapiens, UniProt Q9BWU1); conditions: CDK11; read-out: % Inhibition @ 100 nM
468 kinases [2] = target: 468 kinases (Homo sapiens, UniProt O43683); conditions: BUB1; read-out: % Inhibition @ 100 nM
468 kinases [3] = target: 468 kinases (Homo sapiens, UniProt O14730); conditions: RIOK3; read-out: % Inhibition @ 100 nM
468 kinases [4] = target: 468 kinases (Homo sapiens, UniProt Q9NRP7); conditions: STK36; read-out: % Inhibition @ 100 nM
468 kinases [5] = target: 468 kinases (Homo sapiens, UniProt Q9UQ88); conditions: CDC2L2; read-out: % Inhibition @ 100 nM
468 kinases [6] = target: 468 kinases (Homo sapiens, UniProt P15056, V600E); conditions: BRAF(V600E); read-out: % Inhibition @ 100 nM
468 kinases [7] = target: 468 kinases (Homo sapiens, UniProt P07949); conditions: RET; read-out: % Inhibition @ 100 nM
468 kinases [8] = target: 468 kinases (Homo sapiens, UniProt P36888); conditions: read-out: % Inhibition @ 100 nM
468 kinases [9] = target: 468 kinases (Homo sapiens, UniProt Q9UBF8); conditions: PIK4CB; read-out: % Inhibition @ 100 nM
468 kinases [10] = target: 468 kinases (Homo sapiens, UniProt P42336, I800L); conditions: PIK3CA(I800L); read-out: % Inhibition @ 100 nM
468 kinases [11] = target: 468 kinases (Homo sapiens, UniProt O15075); conditions: DCAMKL1; read-out: % Inhibition @ 100 nM
468 kinases [12] = target: 468 kinases (Homo sapiens, UniProt Q9NSY1); conditions: BIKE; read-out: % Inhibition @ 100 nM
468 kinases [13] = target: 468 kinases (Homo sapiens, UniProt Q9BYP7); conditions: WNK3; read-out: % Inhibition @ 100 nM
468 kinases [14] = target: 468 kinases (Homo sapiens, UniProt P49840); conditions: GSK3A; read-out: % Inhibition @ 100 nM
468 kinases [15] = target: 468 kinases (Homo sapiens, UniProt Q9H422); conditions: HIPK3; read-out: % Inhibition @ 100 nM
468 kinases [16] = target: 468 kinases (Homo sapiens, UniProt Q8IU85); conditions: CAMK1D; read-out: % Inhibition @ 100 nM
468 kinases [17] = target: 468 kinases (Homo sapiens, UniProt P06239); conditions: LCK; read-out: % Inhibition @ 100 nM
468 kinases [18] = target: 468 kinases (Homo sapiens, UniProt P57058); conditions: HUNK; read-out: % Inhibition @ 100 nM
468 kinases [19] = target: 468 kinases (Homo sapiens, UniProt P48729); conditions: CSNK1A1; read-out: % Inhibition @ 100 nM
468 kinases [20] = target: 468 kinases (Homo sapiens, UniProt P35916); conditions: FLT4; read-out: % Inhibition @ 100 nM
468 kinases [21] = target: 468 kinases (Homo sapiens, UniProt Q13237); conditions: PRKG2; read-out: % Inhibition @ 100 nM
468 kinases [22] = target: 468 kinases (Homo sapiens, UniProt Q13976); conditions: PRKG1; read-out: % Inhibition @ 100 nM
468 kinases [23] = target: 468 kinases (Homo sapiens, UniProt O00238); conditions: BMPR1B; read-out: % Inhibition @ 100 nM
468 kinases [24] = target: 468 kinases (Homo sapiens, UniProt P10721, A829P); conditions: KIT(A829P); read-out: % Inhibition @ 100 nM
468 kinases [25] = target: 468 kinases (Homo sapiens, UniProt Q14289); conditions: PYK2; read-out: % Inhibition @ 100 nM
468 kinases [26] = target: 468 kinases (Homo sapiens, UniProt O60331); conditions: PIPSK1C; read-out: % Inhibition @ 100 nM
468 kinases [27] = target: 468 kinases (Homo sapiens, UniProt P10721, D816V); conditions: KIT(D816V); read-out: % Inhibition @ 100 nM
468 kinases [28] = target: 468 kinases (Homo sapiens, UniProt P37173); conditions: TGFBR2; read-out: % Inhibition @ 100 nM
468 kinases [29] = target: 468 kinases (Homo sapiens, UniProt Q15139); conditions: PRKD1; read-out: % Inhibition @ 100 nM
468 kinases [30] = target: 468 kinases (Homo sapiens, UniProt P53778); conditions: p38-gamma; read-out: % Inhibition @ 100 nM
468 kinases [31] = target: 468 kinases (Homo sapiens, UniProt Q9Y6M4); conditions: CSNK1G3; read-out: % Inhibition @ 100 nM
468 kinases [32] = target: 468 kinases (Homo sapiens, UniProt P33981); conditions: TTK; read-out: % Inhibition @ 100 nM
468 kinases [33] = target: 468 kinases (Homo sapiens, UniProt Q8NI60); conditions: ADCK3; read-out: % Inhibition @ 100 nM

468 kinases (Homo sapiens, UniProt P36888), sequence (P36888 27-993 limits assumed): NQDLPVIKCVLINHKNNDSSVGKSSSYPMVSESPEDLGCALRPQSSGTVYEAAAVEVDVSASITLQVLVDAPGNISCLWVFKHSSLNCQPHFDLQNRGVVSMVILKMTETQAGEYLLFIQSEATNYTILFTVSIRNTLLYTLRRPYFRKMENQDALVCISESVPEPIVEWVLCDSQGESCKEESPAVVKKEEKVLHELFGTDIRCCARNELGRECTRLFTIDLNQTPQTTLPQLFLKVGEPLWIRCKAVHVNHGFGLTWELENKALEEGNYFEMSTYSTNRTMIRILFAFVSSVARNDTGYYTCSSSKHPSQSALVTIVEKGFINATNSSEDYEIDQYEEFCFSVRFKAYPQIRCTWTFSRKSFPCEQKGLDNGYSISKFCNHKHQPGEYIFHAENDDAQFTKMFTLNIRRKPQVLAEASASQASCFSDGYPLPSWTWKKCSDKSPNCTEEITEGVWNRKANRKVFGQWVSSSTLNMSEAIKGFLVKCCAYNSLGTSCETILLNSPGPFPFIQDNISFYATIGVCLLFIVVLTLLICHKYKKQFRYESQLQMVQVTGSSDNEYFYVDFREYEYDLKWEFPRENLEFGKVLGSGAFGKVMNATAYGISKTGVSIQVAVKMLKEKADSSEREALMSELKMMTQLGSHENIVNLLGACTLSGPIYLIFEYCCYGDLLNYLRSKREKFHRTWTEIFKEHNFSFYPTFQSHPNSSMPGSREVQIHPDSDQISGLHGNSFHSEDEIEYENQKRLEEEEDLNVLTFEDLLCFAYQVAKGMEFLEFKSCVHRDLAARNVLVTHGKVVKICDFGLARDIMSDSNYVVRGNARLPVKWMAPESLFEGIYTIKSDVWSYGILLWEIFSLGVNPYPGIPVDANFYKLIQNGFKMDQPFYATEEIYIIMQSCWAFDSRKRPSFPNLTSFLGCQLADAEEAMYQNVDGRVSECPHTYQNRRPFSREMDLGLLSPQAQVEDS
468 kinases (Homo sapiens, UniProt P10721, A829P), sequence (P10721 26-976 A829P limits assumed): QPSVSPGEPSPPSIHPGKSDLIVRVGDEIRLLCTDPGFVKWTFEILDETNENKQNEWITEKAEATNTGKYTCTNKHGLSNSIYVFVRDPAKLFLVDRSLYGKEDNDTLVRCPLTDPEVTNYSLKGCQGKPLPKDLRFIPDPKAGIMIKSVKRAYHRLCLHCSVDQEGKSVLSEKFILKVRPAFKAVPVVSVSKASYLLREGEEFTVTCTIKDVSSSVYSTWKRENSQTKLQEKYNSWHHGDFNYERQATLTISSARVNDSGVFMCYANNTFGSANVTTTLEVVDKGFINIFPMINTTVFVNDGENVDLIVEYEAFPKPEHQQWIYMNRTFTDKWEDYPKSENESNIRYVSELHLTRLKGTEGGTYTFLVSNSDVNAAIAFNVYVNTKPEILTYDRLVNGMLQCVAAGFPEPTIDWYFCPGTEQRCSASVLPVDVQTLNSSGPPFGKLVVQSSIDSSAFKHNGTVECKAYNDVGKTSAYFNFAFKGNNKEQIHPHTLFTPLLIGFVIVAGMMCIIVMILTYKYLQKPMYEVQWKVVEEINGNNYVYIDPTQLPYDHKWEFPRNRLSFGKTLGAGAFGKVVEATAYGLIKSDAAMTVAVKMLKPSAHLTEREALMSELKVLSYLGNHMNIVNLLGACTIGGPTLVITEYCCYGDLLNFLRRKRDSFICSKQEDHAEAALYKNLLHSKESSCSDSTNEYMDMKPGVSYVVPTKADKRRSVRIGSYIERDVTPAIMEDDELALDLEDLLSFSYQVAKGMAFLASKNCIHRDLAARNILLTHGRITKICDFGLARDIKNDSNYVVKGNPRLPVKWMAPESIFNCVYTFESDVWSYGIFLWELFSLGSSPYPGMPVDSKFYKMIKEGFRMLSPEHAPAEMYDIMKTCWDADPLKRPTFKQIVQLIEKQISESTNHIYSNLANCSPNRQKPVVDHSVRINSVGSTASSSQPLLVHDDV
468 kinases (Homo sapiens, UniProt O00238), sequence (O00238 14-502 limits assumed): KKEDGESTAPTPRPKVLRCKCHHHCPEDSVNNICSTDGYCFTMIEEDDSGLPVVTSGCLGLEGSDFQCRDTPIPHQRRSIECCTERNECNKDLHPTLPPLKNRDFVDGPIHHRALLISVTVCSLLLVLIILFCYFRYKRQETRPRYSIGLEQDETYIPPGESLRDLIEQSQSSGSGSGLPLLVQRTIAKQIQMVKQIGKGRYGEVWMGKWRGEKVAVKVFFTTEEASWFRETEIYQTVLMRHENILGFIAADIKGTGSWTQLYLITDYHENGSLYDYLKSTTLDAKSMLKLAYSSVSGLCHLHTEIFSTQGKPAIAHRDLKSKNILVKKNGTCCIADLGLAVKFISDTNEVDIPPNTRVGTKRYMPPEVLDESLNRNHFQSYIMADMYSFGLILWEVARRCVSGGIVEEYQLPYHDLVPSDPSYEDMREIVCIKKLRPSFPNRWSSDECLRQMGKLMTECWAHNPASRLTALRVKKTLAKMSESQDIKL
468 kinases (Homo sapiens, UniProt P49840), sequence (P49840 2-483 limits assumed): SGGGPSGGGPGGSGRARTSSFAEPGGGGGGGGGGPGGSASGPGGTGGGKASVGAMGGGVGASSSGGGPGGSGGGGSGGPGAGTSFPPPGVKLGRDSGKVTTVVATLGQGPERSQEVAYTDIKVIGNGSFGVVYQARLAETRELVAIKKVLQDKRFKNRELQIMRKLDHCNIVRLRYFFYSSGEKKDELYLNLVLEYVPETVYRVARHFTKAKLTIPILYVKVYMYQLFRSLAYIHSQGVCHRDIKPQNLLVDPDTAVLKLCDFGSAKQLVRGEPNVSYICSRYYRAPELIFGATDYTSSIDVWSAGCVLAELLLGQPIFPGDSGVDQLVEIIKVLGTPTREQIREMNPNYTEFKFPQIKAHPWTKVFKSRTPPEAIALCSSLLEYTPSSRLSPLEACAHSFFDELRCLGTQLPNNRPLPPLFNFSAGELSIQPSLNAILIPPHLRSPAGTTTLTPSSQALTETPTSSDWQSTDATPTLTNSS
468 kinases (Homo sapiens, UniProt P35916), sequence (P35916 25-1363 limits assumed): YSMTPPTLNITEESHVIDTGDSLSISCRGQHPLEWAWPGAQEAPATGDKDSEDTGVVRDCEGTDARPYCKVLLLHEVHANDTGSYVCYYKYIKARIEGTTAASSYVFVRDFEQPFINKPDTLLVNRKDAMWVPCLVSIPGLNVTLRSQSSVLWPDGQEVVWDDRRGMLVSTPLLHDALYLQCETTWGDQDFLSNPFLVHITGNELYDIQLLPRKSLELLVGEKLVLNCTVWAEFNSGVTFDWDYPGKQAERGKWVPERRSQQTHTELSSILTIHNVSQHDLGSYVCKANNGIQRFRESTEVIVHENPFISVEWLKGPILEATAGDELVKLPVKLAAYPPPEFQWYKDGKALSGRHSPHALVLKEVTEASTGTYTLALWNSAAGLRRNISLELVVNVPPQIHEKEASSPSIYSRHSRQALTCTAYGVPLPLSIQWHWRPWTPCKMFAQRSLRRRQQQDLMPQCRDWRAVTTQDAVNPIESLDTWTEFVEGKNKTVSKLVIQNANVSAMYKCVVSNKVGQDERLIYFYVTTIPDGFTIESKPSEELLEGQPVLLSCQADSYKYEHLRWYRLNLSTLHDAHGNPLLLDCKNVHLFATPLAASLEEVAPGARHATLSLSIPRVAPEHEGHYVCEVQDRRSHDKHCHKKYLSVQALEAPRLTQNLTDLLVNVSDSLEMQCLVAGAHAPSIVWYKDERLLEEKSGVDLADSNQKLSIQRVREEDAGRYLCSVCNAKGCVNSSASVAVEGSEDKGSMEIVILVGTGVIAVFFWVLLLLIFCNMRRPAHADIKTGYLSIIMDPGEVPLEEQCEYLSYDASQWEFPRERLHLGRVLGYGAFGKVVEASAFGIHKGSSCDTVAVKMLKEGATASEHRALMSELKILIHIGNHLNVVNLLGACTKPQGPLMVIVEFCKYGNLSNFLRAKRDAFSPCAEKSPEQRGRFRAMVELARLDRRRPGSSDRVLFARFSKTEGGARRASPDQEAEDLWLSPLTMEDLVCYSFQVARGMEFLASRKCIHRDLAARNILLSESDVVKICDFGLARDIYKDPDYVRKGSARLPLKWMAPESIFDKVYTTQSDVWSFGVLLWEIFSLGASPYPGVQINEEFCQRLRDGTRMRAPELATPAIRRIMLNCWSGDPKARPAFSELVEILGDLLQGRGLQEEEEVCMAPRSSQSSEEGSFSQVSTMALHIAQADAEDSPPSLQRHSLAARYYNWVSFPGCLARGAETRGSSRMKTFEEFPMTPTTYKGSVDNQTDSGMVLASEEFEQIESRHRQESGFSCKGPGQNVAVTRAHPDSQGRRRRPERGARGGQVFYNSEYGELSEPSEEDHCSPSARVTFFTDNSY
468 kinases (Homo sapiens, UniProt Q13237), sequence (Q13237 2-762 limits assumed): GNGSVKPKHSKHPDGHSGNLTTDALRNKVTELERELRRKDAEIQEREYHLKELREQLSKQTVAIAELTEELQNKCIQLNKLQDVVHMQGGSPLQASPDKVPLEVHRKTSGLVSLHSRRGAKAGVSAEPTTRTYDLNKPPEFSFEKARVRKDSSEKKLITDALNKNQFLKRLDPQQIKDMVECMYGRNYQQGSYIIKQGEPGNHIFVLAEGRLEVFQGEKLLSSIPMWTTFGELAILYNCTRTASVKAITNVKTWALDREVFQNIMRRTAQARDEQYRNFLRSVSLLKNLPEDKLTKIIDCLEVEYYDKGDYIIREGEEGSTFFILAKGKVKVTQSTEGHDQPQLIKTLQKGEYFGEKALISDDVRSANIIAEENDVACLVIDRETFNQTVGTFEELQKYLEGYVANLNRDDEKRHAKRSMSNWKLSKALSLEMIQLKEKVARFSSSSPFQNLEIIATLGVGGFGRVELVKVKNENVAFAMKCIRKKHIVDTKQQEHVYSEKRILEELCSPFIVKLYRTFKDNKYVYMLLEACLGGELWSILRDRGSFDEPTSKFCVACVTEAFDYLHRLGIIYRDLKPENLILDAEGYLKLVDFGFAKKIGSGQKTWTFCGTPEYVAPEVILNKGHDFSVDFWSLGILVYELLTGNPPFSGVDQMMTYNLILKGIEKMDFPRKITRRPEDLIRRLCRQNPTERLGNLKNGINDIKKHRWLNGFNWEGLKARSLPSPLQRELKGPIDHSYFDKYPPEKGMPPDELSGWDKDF
468 kinases (Homo sapiens, UniProt P10721, D816V), sequence (P10721 26-976 D816V limits assumed): as the sequence (P10721 26-976 A829P limits assumed) above, with D791V, P804A counted along it

SMILES: CCN(CC)CCNC(=O)c1c(C)[nH]c(/C=C2\C(=O)Nc3ccc(CCO)cc32)c1C [Compound No. 10, (Z)—N-(2-(Diethylamino)ethyl)-5-((5-(2-hydroxyethyl)-2-oxoindolin-3-ylidene)methyl)-2,4-dimethyl-1H-pyrrole-3-carboxamide]
- inhibition at 0.1 µM (468 kinases [1]): 12%
- inhibition at 0.1 µM (468 kinases [2]): 0%
- inhibition at 0.1 µM (468 kinases [3]): 93.9%
- inhibition at 0.1 µM (468 kinases [4]): 0%
- inhibition at 0.1 µM (468 kinases [5]): 1%
- inhibition at 0.1 µM (468 kinases [6]): 3%
- inhibition at 0.1 µM (468 kinases [7]): 55%
- inhibition at 0.1 µM (468 kinases [8]; FLT3 -autoinhibited): 81%
- inhibition at 0.1 µM (468 kinases [8]; FLT3): 96.7%
- inhibition at 0.1 µM (468 kinases [9]): 0%
- inhibition at 0.1 µM (468 kinases [10]): 41%
- inhibition at 0.1 µM (468 kinases [11]): 32%
- inhibition at 0.1 µM (468 kinases [12]): 97.4%
- inhibition at 0.1 µM (468 kinases [13]): 9%
- inhibition at 0.1 µM (468 kinases [14]): 3%
- inhibition at 0.1 µM (468 kinases [15]): 21%
- inhibition at 0.1 µM (468 kinases [16]): 0%
- inhibition at 0.1 µM (468 kinases [17]): 37%
- inhibition at 0.1 µM (468 kinases [18]): 13%
- inhibition at 0.1 µM (468 kinases [19]): 14%
- inhibition at 0.1 µM (468 kinases [20]): 27%
- inhibition at 0.1 µM (468 kinases [21]): 0%
- inhibition at 0.1 µM (468 kinases [22]): 0%
- inhibition at 0.1 µM (468 kinases [23]): 0%
- inhibition at 0.1 µM (468 kinases [24]): 0%
- inhibition at 0.1 µM (468 kinases [25]): 31%
- inhibition at 0.1 µM (468 kinases [26]): 32%
- inhibition at 0.1 µM (468 kinases [27]): 12%
- inhibition at 0.1 µM (468 kinases [28]): 0%
- inhibition at 0.1 µM (468 kinases [29]): 0%
- inhibition at 0.1 µM (468 kinases [30]): 14%
- inhibition at 0.1 µM (468 kinases [31]): 6%
- inhibition at 0.1 µM (468 kinases [32]): 0%
- inhibition at 0.1 µM (468 kinases [33]): 8%

SMILES: CCN(CC)CCNC(=O)c1c(C)[nH]c(/C=C2\C(=O)Nc3ccc(CCC(N)=O)cc32)c1C [Compound No. 16, (Z)-5-((5-(3-Amino-3-oxopropyl)-2-oxoindolin-3-ylidene)methyl)-N-(2-(diethylamino)ethyl)-2,4-dimethyl-1H-pyrrole-3-carboxamide]
- inhibition at 0.1 µM (468 kinases [1]): 3%
- inhibition at 0.1 µM (468 kinases [2]): 21%
- inhibition at 0.1 µM (468 kinases [3]): 100%
- inhibition at 0.1 µM (468 kinases [4]): 0%
- inhibition at 0.1 µM (468 kinases [5]): 13%
- inhibition at 0.1 µM (468 kinases [6]): 0%
- inhibition at 0.1 µM (468 kinases [7]): 60%
- inhibition at 0.1 µM (468 kinases [8]; FLT3 -autoinhibited): 61%
- inhibition at 0.1 µM (468 kinases [8]; FLT3): 62%
- inhibition at 0.1 µM (468 kinases [9]): 10%
- inhibition at 0.1 µM (468 kinases [10]): 20%
- inhibition at 0.1 µM (468 kinases [11]): 32%
- inhibition at 0.1 µM (468 kinases [12]): 93.6%
- inhibition at 0.1 µM (468 kinases [13]): 7%
- inhibition at 0.1 µM (468 kinases [14]): 10%
- inhibition at 0.1 µM (468 kinases [15]): 95.3%
- inhibition at 0.1 µM (468 kinases [16]): 6%
- inhibition at 0.1 µM (468 kinases [17]): 16%
- inhibition at 0.1 µM (468 kinases [18]): 0%
- inhibition at 0.1 µM (468 kinases [19]): 27%
- inhibition at 0.1 µM (468 kinases [20]): 56%
- inhibition at 0.1 µM (468 kinases [21]): 36%
- inhibition at 0.1 µM (468 kinases [22]): 14%
- inhibition at 0.1 µM (468 kinases [23]): 28%
- inhibition at 0.1 µM (468 kinases [24]): 35%
- inhibition at 0.1 µM (468 kinases [25]): 7%
- inhibition at 0.1 µM (468 kinases [26]): 15%
- inhibition at 0.1 µM (468 kinases [27]): 24%
- inhibition at 0.1 µM (468 kinases [28]): 0%
- inhibition at 0.1 µM (468 kinases [29]): 0%
- inhibition at 0.1 µM (468 kinases [30]): 15%
- inhibition at 0.1 µM (468 kinases [31]): 5%
- inhibition at 0.1 µM (468 kinases [32]): 8%
- inhibition at 0.1 µM (468 kinases [33]): 8%
